Source: US10807960B2, “Compounds, compositions, and methods for controlling biofilms” (KATHOLIEKE UNIVERSITEIT LEUVEN, priority 2015, dated 2020)
Like-named read-outs stand apart in the source and are kept apart here.

What was measured:
[1] = test system: C. albicans SC5314 + S. epidermidis; test: mixed C. albicans/S. epidermidis biofilm assay, selective plating; format: cell-based, Candida albicans; Staphylococcus epidermidis; details: for activity at 25 µM: 25 μM (Table 5); for activity at 100 µM: 100 μM (Table 5)
Description: The concentrations 25 μM (0.0625% DMSO or ethanol) and 100 μM (0.25% DMSO or ethanol) were tested. After 24 h of incubation at 37° C., biofilms were washed with PBS and fresh medium with or without compounds was added. After further incubation for 48 h at 37° C., the biofilms were washed with PBS after which the cells were re-suspended in 100 μl of PBS by scraping off, sonication (1 min, 45 kHz, USC300-T; VWR, Radnor, Pa., USA) and vigorously pipetting up-and-down. Finally, the biofilm cells were diluted in PBS and plated on YPD agar plates containing 100 mg/L ampicillin and TSA plates containing 25 mg/L amphotericin B, to determine the number of fungal and bacterial CFUs after 2 days of incubation at 37° C., respectively. The percentage of C. albicans SC5314 and S. epidermidis cells was determined relative to the DMSO or ethanol control treatment.

osteoblasts (OB) [2] = test: mammalian-cell viability assay, trypan blue staining; format: cell-based; details: 12.5 μM, 6 days exposure
Description: (§1) Cell viability of two human primary cell types, namely, osteoblasts (OB) and bone-marrow derived mesenchymal stem cells (MSC) was tested according to the ISO 10993-5 standard, as previously described. Briefly, cells were seeded in 96-well tissue culture test plates (TPP, Switzerland) at 5×10^3 cells/cm^2 in Advanced DMEM cell culture media supplemented with 10% serum, 1× GlutaMAX, 0.05 mg/mL Gentamycin, and were allowed to attach overnight. The next day, the cells were exposed to (i) cell culture medium and medium with the corresponding control (0.5% ethanol or DMSO) (negative controls), (ii) medium with 0.05% phenol (cytotoxic control), and (iii) medium with compounds (12.5 μM) and incubated for 2 h, 48 h and 6 days (8 repeats for each condition). At each time-point the numbers of viable and dead cells were determined directly by trypan blue staining, and indirectly by measuring the metabolic activity with MTT (3-(4,5-dimethylthiazol-2-yl)-2,5-diphenyltetrazolium bromide) staining.
(§2) The medium was removed from the wells, and 1/3 trypan blue in Dulbecco's modified Eagle's medium (DMEM) was added to the cells, incubated for 3 min, after which trypan blue was removed and DMEM medium was added to the wells. In each of four wells, two microscopy fields were counted for viable (transparent) and dead (blue) cells.

[3] = test system: bone-marrow derived mesenchymal stem cells (MSC); test: as above; format: cell-based; details: 12.5 μM, 6 days exposure
Description: as §1, §2

osteoblasts (OB) [4] = test: metabolic activity, MTT staining; format: cell-based; details: 12.5 μM, 6 days treatment
Description: as §1
(§3) The medium was removed from the wells and 100 μl of medium, supplemented with 10% serum and 0.5 mg/mL MTT was added to the cells. The cells were incubated overnight at 37° C. and 5% CO2. The next day the medium with MTT was removed and 100 μl acidic isopropanol was added. The cells were then centrifuged at 2300 g and 50 μl of the supernatant was transferred to a new 96-well plate. The absorbance was measured at 570 nm and the background was measured at 660 nm. Four wells per condition were examined.

[5] = test system: bone-marrow derived mesenchymal stem cells (MSC); test: metabolic activity, MTT staining; format: cell-based; details: 12.5 μM, 6 days treatment
Description: as §1, §3

C. albicans SC5314 = test: inhibition of C. albicans biofilms, cell titer blue (CTB) quantification; format: cell-based, Candida albicans; details: monospecies biofilm; novel compounds: highest concentration tested 100 μM
Description: The potential of the compounds to prevent C. albicans SC5314 biofilm formation was assessed using the cell titer blue (CTB) quantification method (26). For the CTB method, an overnight culture of C. albicans SC5314 was washed with PBS and a cell suspension of 10^6 cells/ml (OD600=0.1) was prepared in RPMI 1640 medium (pH 7.0). […] After 16 h of static incubation at 37° C., biofilms were washed and quantified with CTB as described previously.

osteoblasts (OB) [6] = test: osteogenic differentiation, calcium and DNA assay; format: cell-based, human; details: 12.5 μM, calcium content normalized by DNA, versus solvent control
Description: (§4) The effect on osteogenic differentiation potential was assessed as previously described. Only the substances that allowed survival of the cells for more than 3 weeks, which is the time needed for mature osteogenic differentiation, were tested. Briefly, osteoblasts and bone-marrow derived mesenchymal stem cells were cultured in a positive solvent control (osteogenic medium with 0.5% DMSO or ethanol background), a negative control (medium without osteogenic supplements) and treated samples (osteogenic medium, 0.5% DMSO or ethanol background and 12.5 μM of test compound) with four repeats per condition. Mesenchymal stem cells and osteoblast cell cultures were harvested after 3 or 5 weeks, respectively, for the calcium and DNA assay.
(§5) Calcium deposition of osteoblasts and mesenchymal stem cells was measured with the Calcium CPC LiquiColor test (Stanbio Laboratory, Boerne, Tex.) as previously described. Briefly, cell cultures were extracted with 5% trichloroacetic acid (500 μl per sample), O-cresolphtalein complex was added, and the calcium content was determined spectrophotometrically at 550 nm. DNA content was determined as previously described. DNA values were used to normalize the calcium content. Four wells per condition were examined, and two samples from each well were taken for each assay.

[7] = test system: bone-marrow derived mesenchymal stem cells (MSC); test: osteogenic differentiation, calcium and DNA assay; format: cell-based, human; details: 12.5 μM, calcium content normalized by DNA, versus solvent control
Description: as §4, §5

[8] = C. albicans in mixed biofilm with S. epidermidis, read-out: CFUs % survival C.a.

Row | metabolic activity compared to the solvent control (in words) (osteoblasts (OB) [4]) | metabolic activity compared to the solvent control (in words) [5] | SMILES | effect on the C. albicans/S. epidermidis mixture (in words) [1] | activity at 25 µM [1, 8] [%] | activity at 100 µM [1, 8] [%] | proliferation (in words) (osteoblasts (OB) [2]) | proliferation (in words) [3] | anti-biofilm activity (in words) (C. albicans SC5314) | calcium deposition (in words) (osteoblasts (OB) [6]) | calcium deposition (in words) [7] | activity at 25 µM ([1]; S. epidermidis in mixed biofilm with C. albicans, read-out: CFUs % survival S.c.) [%] | activity at 100 µM ([1]; S. epidermidis in mixed biofilm with C. albicans, read-out: CFUs % survival Se.) [%]
1 | increased | increased | CCCCCCCCn1c(-c2ccc(Cl)c(Cl)c2)cnc1NCC(C)C [Compound 8d, 5-(3,4-dichlorophenyl)-N-isobutyl-1-octyl-1H-imidazol-2-amine] | only reduced C. albicans | 2.5 | 1.4 | increase in proliferation | increase in proliferation | not active | none of the compounds negatively affected the calcium deposition | none of the compounds negatively affected the calcium deposition |  | 
2 | increased | increased | CCCCCCCCn1c(-c2ccc(Br)cc2)cnc1NC1CCCC1 [Compound 8g, 5-(4-bromophenyl)-N-cyclopentyl-1-octyl-1H-imidazol-2-amine] |  | 3.3 | 5.9 | increase in proliferation | slightly reduced |  | induced the calcium deposition | induced the calcium deposition | 0 | 0
